PMC4101055 (Antiviral research, 2014)
Entries after “also recorded” stand apart in the source; their conditions may differ. Blank lines part the entries; values can stand above or below the molecule they belong to.

What was measured:
[1] = biological target: recombinant genotype D HBV RNaseH (Hepatitis B virus genotype D subtype ayw, UniProt P03156); test: Oligonucleotide-directed RNA cleavage assay, HBV genotype D RNaseH; assay type: biochemical; conditions: for activity against the HBV RNaseH (in words): genotype D and C enzymes, up to 60 µM
HIV RNaseH = conditions: read-out: IC50 against the HIV RNaseH; ref Billamboz et al., 2011b; cited from earlier work
HBV replication = conditions: read-out: EC50 against HBV replication; ref Hu et al., 2013; cited from earlier work
genotype C HBV RNaseH = genotype C HBV RNaseH (Hepatitis B virus, UniProt P12933); test: Oligonucleotide-directed RNA cleavage assay, HBV genotype C RNaseH; assay type: biochemical; conditions: read-out: Genotype C IC50; average ± SD, three or four independent assays
HepDES19 cells = test: MTT cytotoxicity assay; assay type: cell-based, human; conditions: read-out: Cytotoxicity CC50, MTT, 3 days treatment
[2] = tested on: HBV genotype D replication in HepDES19 cells; test: HBV replication assay in HepDES19 cells; assay type: cell-based, Hepatitis B virus; conditions: same samples as the EC50 assay
E. coli RNaseH = E. coli RNaseH (Escherichia coli, UniProt P0A7Y4); test: Oligonucleotide-directed cleavage assay with E. coli RNaseH; assay type: biochemical; conditions: identical conditions to the HBV RNaseH assay
Chain of E. coli RNaseH (P0A7Y4 whole entry): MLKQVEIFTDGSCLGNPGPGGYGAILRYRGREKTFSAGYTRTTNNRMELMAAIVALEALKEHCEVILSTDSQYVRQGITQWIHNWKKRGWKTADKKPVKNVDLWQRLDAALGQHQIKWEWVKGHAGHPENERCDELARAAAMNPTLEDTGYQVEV

Chain of recombinant genotype D HBV RNaseH (P03156 671-832): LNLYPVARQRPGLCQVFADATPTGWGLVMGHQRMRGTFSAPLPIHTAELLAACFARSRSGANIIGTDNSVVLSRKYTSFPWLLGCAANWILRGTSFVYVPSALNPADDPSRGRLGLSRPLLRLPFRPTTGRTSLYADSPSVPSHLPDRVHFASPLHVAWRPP
Chain of genotype C HBV RNaseH (P12933 682-843): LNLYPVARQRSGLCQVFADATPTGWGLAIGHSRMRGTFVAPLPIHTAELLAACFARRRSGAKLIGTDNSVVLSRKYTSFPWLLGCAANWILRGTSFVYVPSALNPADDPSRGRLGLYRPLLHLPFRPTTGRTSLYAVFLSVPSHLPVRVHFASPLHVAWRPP

SMILES: COC(=O)C1C(=O)N(O)C(=O)c2ccccc21 (stereo not shown) [Compound 81, 2-hydroxy-4-methoxycarbonylisoquinoline-1,3(2H,4H)-dione]
activity against the HBV RNaseH (in words) [1]: negligible activity
IC50 (HIV RNaseH): 0.061 µM

activity against the HBV RNaseH (in words) [1]: inactivity
SMILES: O=C1c2ccccc2C(=O)N1O [Compound 138]

SMILES: CC(C)c1ccc(O)c(=O)c(O)c1 [Compound 46, β-thujaplicinol]
EC50 (HBV replication): ~5 µM

activity against the HBV RNaseH (in words) [1]: inactivity
SMILES: O=C1CCC(=O)N1O [Compound 139]

SMILES: O=C1Cc2ccccc2C(=O)N1O [Compound 1, 2-hydroxyisoquinoline-1,3(2H,4H)-dione]
IC50 (genotype C HBV RNaseH): 30.4 ± 12.9 µM
IC50 [1]: 28.1 ± 9.7 µM
CC50 (HepDES19 cells): 74.7 ± 24 µM
Accumulation of minus-polarity HBV DNA strand [2]: not suppressed
Effect on E. coli RNaseH activity (E. coli RNaseH): not affected; also recorded: inactive
